Results from PMC10017042 (Science Advances, 2023).
Several values for one entry are separate records, joined by “and”; a condition that tells them apart may be missing. Equal entries are not always repeated. Where two headings read alike, the source gives them in different places.

Tests used:
HIV-1 [1] = conditions: for Median fold change in CA US HIV-1 RNA from baseline: pyrimethamine monotherapy excluding LUNA-10 who stopped; for CA US HIVRNA copies/150 ng Total RNA Day 0, 6 hours / CA US HIVRNA copies/150 ng Total RNA Day 14 / CA US HIVRNA copies/150 ng Total RNA Day 42 / CA US HIVRNA copies/150 ng Total RNA Day 0, pretreatment: individual participants, one value each, below LOQ imputed as 16; for CA US HIVRNA copies/150 ng Total RNA Day 0, pretreatment: pretreatment baseline
Experimental: Because of low cell numbers in the baseline sample, LUNA-06 (combination arm, participant stopped at day 7) was excluded from this primary end point analysis.
For quantification of CA US HIV-1 RNA, CD4^+ T cells were isolated from peripheral blood mononuclear cells (PBMCs) by negative selection using EasySep Human CD4^+ T Cell Enrichment Cocktail ([…] Technologies). Isolation of CD4^+ T cells was performed on ice or at 4°C (unless indicated otherwise by the manufacturer). Approximately 1.5 × 10^6 CD4^+ T cells were lysed in triplicate with TRI reagent. Total RNA was isolated by the phenol/chloroform isolation method following the manufacturer’s instructions. A minimum of 150 ng of total RNA was deoxyribonuclease (DNase)–treated following the manufacturer’s instructions (DNase I, Amplification Grade, Invitrogen), and complementary DNA (cDNA) synthesis was performed in duplicate with SuperScript II (Invitrogen) following the manufacturer‘s instructions. Absolute quantification of CA US HIV-1 RNA was performed following a modified version of Pasternak et al. methodology ([72]). Briefly, the first round of nested amplification was performed in a final volume of 25 μl using 10 μl of cDNA, 2.5 μl of 10× PCR buffer (Life Technologies), 1 μl of 50 mM MgCl2 (Life Technologies), 1 μl of 10 mM deoxynucleotide triphosphate (dNTP) (Life Technologies), 0.075 μl of 100 μM US forward primer, 0.075 μl of 100 μM US reverse 1 primer, and 0.2 μl of Platinum Taq polymerase (Life Technologies) at 95°C for 5 min, followed by 15 cycles at 95°C for 30 s, 55°C for 30 s, and 72°C for […]. The second round of amplification was performed in a final volume of 25 μl using 2 μl of preamplified cDNA, 2.5 μl of […] PCR buffer (Life Technologies), 1 μl of 50 mM MgCl2 (Life Technologies), 1 μl of 10 mM dNTPs (Life Technologies), 0.05 μl of 100 μM US forward primer, 0.05 μl of 100 μM US reverse 2 primer, 0.0375 μl of US probe, and 0.2 μl of Platinum Taq polymerase (Life Technologies) at 95°C for 5 min, followed by 45 cycles at 95°C for 30 s and 60°C for 1 min. The list of primers and probe is available in table S9. The absolute number of US copies in the PCR was calculated using a standard curve ranging from 2 to 512 copies of a plasmid containing the full-length HIV-1 genome (pNL4.3.Luc.R-E-). […] The quantity of CA US HIV-1 RNA was expressed as the number of copies per 150 ng of input RNA in reverse transcription.
The measurements related to the end points CA US HIV-1 RNA, MS HIV-1 RNA, plasma HIV-1 RNA, and drug plasma levels were described as median with IQR or full range. […] The fold change difference per study arm from pretreatment CA US HIV-1 RNA levels to the time points 6 hours, day 14, and day 42 after first dosing was calculated by adding up the fold change per individual divided by the total number of measurements available per time point. We analyzed the primary end point by a generalized estimating equation model to evaluate whether any difference in the CA US HIV-1 RNA existed at any time point during the trial in any of the three interventional arms compared to the control arm. An interaction term of time and treatment was included. […] The difference between the observed and expected amount of CA US HIV-1 RNA was calculated, and combination therapy was considered synergistic if the difference and its 95% confidence interval were >0. Because of the number of participants in this pilot, all secondary end points were exploratory.

HIV-1 [2] = conditions: for Change in inducible reservoir size: day 0 versus day 42; for TILDA reservoir, cells with multiply spliced HIV-RNA detectable per million CD4+ T-cells, >1year / TILDA reservoir, cells with multiply spliced HIV-RNA detectable per million CD4+ T-cells, Day 42 / TILDA reservoir, cells with multiply spliced HIV-RNA detectable per million CD4+ T-cells, Day 0, 0 hour: individual participants, one value each; for TILDA reservoir, cells with multiply spliced HIV-RNA detectable per million CD4+ T-cells, >1year: >1 year after end of treatment; for TILDA reservoir, cells with multiply spliced HIV-RNA detectable per million CD4+ T-cells, Day 0, 0 hour: pretreatment baseline
Experimental: Here, the measurement from the cells obtained >1 year after the last visit was used.
The frequency of CD4^+ T cells expressing MS HIV-1 RNA was determined using TILDA with some modifications to the protocol described previously by our group ([68]). Briefly, total CD4^+ T cells were isolated from PBMCs by negative magnetic selection using EasySep CD4^+ Human CD4^+ T Cell Enrichment kit ([…] Technologies). Following isolation, 1.5 × 10^6 CD4^+ T cells/ml were rested in complete RPMI 1640 for 5 to 8 hours before 12 hours of stimulation with PMA (100 ng/ml) and ionomycin (1 μg/ml) (both from Sigma-Aldrich). After stimulation, CD4^+ T cells were washed and resuspended in serum-free RPMI 1640. Cells were counted and serially diluted accordingly: 1.8 × 10^6 cells/ml, 9 × 10^5 cells/ml, 3 × 10^5 cells/ml, and 1 × 10^5 cells/m. […] In the preamplification reaction, 10 μl of the cell suspension from each dilution was dispensed into 24 to 48 wells of a 96-well plate containing 2 μl of one-step RT-PCR enzyme (Qiagen), 10 μl of 5× one-step RT-PCR buffer (Qiagen), 10 μl of Triton X-100 (0.3%), 0.25 μl of RNAsin (40 U/μl), 2 μl of dNTPs (10 mM each), 1 μl of tat1.4 forward primer (20 μM) and rev reverse primer (20 μM) (as published), and nuclease-free water to a final reaction volume of 50 μl. The one-step RT-PCR was run using the following thermocycling conditions: 50°C for 30 min, 95°C for 15 min, followed by 25 cycles of 95°C for 1 min, 55°C for 1 min, and 72°C for 2 min, and a final extension at 72°C for 5 min. After preamplification, 2 μl of the products was used as input for the real-time PCR to detect tat/rev MS HIV-1 RNA in a final reaction volume of 20 μl, which consisted of 5 μl of 4× TaqMan Fast Advanced Master mix (Thermo Fisher Scientific), 0.4 μl of tat2.0 forward primer, rev reverse primer (each at 20 μM), and MS tat/rev probe (5 μM). The real-time PCR was performed using the following program: 50°C for 5 min, 95°C for 20 s, followed by 45 cycles of 95°C for 3 s and 60°C for 30 s. Positive wells at each dilution were recorded and used to determine the frequency of cells expressing tat/rev MS HIV-1 RNA by the maximum likelihood method.

[3] = design: method as in PMID 22837004; conditions: assumed for the sampling design; fasted first dose; cited from earlier work

CCc1nc(N)nc(N)c1-c1ccc(Cl)cc1 [pyrimethamine]
Mean fold change in CA US HIV-1 RNA (HIV-1 [1]; 6 hours after first dose, arm mean): 2.11 fold
PLWH with increased CA US HIV-1 RNA (responders) (HIV-1 [1]; 6 hours after the first dose): six of seven
Median fold change CA US HIV-1 RNA (HIV-1 [1]; after 6 hours, the two arms exposed to pyrimethamine pooled (with and without VPA)): 1.8 fold
Median fold change in CA US HIV-1 RNA (normalized to day 0, 0 hours) (HIV-1 [1]; day 0, t = 0 hours (pretreatment baseline, normalisation point)): 1 fold
Median fold change in CA US HIV-1 RNA (normalized to day 0, 0 hours) (HIV-1 [1]; day 0, t = 6 hours after first dose, arm median, PLWH on cART, oral PYR 200 mg day 1 then 100 mg once daily, VPA 30 mg/kg per day): 2.1073 fold
Median fold change in CA US HIV-1 RNA (normalized to day 0, 0 hours) (HIV-1 [1]; day 14 (end of treatment), arm median, PLWH on cART): 1.9 fold
Median fold change in CA US HIV-1 RNA (normalized to day 0, 0 hours) (HIV-1 [1]; day 14 (end of treatment), arm median, PLWH on cART, listed as Pyrimethamine): 1.9129 fold
Median fold change in CA US HIV-1 RNA from baseline (HIV-1 [1]; day 14): 1.8 fold
Median fold change in CA US HIV-1 RNA (normalized to day 0, 0 hours) (HIV-1 [1]; day 42 (28 days after end of treatment), arm median, PLWH on cART): 1.7 fold
Median fold change in CA US HIV-1 RNA (normalized to day 0, 0 hours) (HIV-1 [1]; day 42 (28 days after end of treatment), arm median, PLWH on cART, listed as Pyrimethamine): 1.6775 fold
Median fold change in CA US HIV-1 RNA from baseline (HIV-1 [1]; day 42): 1.6 fold
CA US HIVRNA copies/150 ng Total RNA Day 0, 6 hours (HIV-1 [1]; listed as PYR): 125,01 copies/150 ng Total RNA and 126,50 copies/150 ng Total RNA and 51,31 copies/150 ng Total RNA and 94,04 copies/150 ng Total RNA and 39,82 copies/150 ng Total RNA and 55,52 copies/150 ng Total RNA and 96,01 copies/150 ng Total RNA
CA US HIVRNA copies/150 ng Total RNA Day 14 (HIV-1 [1]; listed as PYR): 114,91 copies/150 ng Total RNA and 111,02 copies/150 ng Total RNA and 74,67 copies/150 ng Total RNA and 54,10 copies/150 ng Total RNA and 42,33 copies/150 ng Total RNA and 62,36 copies/150 ng Total RNA and 111,26 copies/150 ng Total RNA
CA US HIVRNA copies/150 ng Total RNA Day 42 (HIV-1 [1]; listed as PYR): 85,80 copies/150 ng Total RNA and 54,17 copies/150 ng Total RNA and 82,71 copies/150 ng Total RNA and 69,81 copies/150 ng Total RNA and 29,28 copies/150 ng Total RNA and 101,16 copies/150 ng Total RNA and 84,39 copies/150 ng Total RNA
CA US HIVRNA copies/150 ng Total RNA Day 0, pretreatment (HIV-1 [1]; listed as PYR): 32,60 copies/150 ng Total RNA and 68,92 copies/150 ng Total RNA and 24,35 copies/150 ng Total RNA and 49,43 copies/150 ng Total RNA and 16,00 copies/150 ng Total RNA and 79,98 copies/150 ng Total RNA and 51,15 copies/150 ng Total RNA
Median inducible reservoir (TILDA) (HIV-1 [2]; after treatment (day 42)): 10.0 cells per million CD4+ T cells
Median inducible reservoir (TILDA) (HIV-1 [2]; before treatment (day 0)): 15.1 cells per million CD4+ T cells
Change in inducible reservoir size (HIV-1 [2]): do not indicate a significant change
TILDA reservoir, cells with multiply spliced HIV-RNA detectable per million CD4+ T-cells, >1year (HIV-1 [2]; listed as PYR): 19.3 per million CD4+ T-cells and 91.8 per million CD4+ T-cells and 13.9 per million CD4+ T-cells and 6.1 per million CD4+ T-cells and 22.2 per million CD4+ T-cells and 15.2 per million CD4+ T-cells
TILDA reservoir, cells with multiply spliced HIV-RNA detectable per million CD4+ T-cells, Day 42 (HIV-1 [2]; listed as PYR): 8.8 per million CD4+ T-cells and 122.8 per million CD4+ T-cells and 9.0 per million CD4+ T-cells and 1.6 per million CD4+ T-cells and 22.9 per million CD4+ T-cells
TILDA reservoir, cells with multiply spliced HIV-RNA detectable per million CD4+ T-cells, Day 0, 0 hour (HIV-1 [2]; listed as PYR): 2.7 per million CD4+ T-cells and 109.8 per million CD4+ T-cells and 16.9 per million CD4+ T-cells and 11.5 per million CD4+ T-cells and 15.1 per million CD4+ T-cells and 20.1 per million CD4+ T-cells and 2.8 per million CD4+ T-cells
Tmax [3]: approximately 4 hours

CCCC(CCC)C(=O)O [valproic acid]
Median CA US HIV-1 RNA compared to pretreatment levels (HIV-1 [1]; any time point): did not have significantly increased
CA US HIVRNA copies/150 ng Total RNA Day 0, 6 hours (HIV-1 [1]; listed as VPA): 42,74 copies/150 ng Total RNA and 53,04 copies/150 ng Total RNA and 19,23 copies/150 ng Total RNA and 101,51 copies/150 ng Total RNA and 51,59 copies/150 ng Total RNA and 10,16 copies/150 ng Total RNA and 16,00 copies/150 ng Total RNA
CA US HIVRNA copies/150 ng Total RNA Day 14 (HIV-1 [1]; listed as VPA): 28,40 copies/150 ng Total RNA and 97,80 copies/150 ng Total RNA and 16,00 copies/150 ng Total RNA and 47,89 copies/150 ng Total RNA and 161,79 copies/150 ng Total RNA and 18,41 copies/150 ng Total RNA and 18,82 copies/150 ng Total RNA
CA US HIVRNA copies/150 ng Total RNA Day 42 (HIV-1 [1]; listed as VPA): 49,74 copies/150 ng Total RNA and 59,03 copies/150 ng Total RNA and 16,00 copies/150 ng Total RNA and 52,98 copies/150 ng Total RNA and 59,33 copies/150 ng Total RNA and 22,83 copies/150 ng Total RNA
CA US HIVRNA copies/150 ng Total RNA Day 0, pretreatment (HIV-1 [1]; listed as VPA): 95,16 copies/150 ng Total RNA and 39,10 copies/150 ng Total RNA and 16,00 copies/150 ng Total RNA and 76,70 copies/150 ng Total RNA and 12,93 copies/150 ng Total RNA and 22,90 copies/150 ng Total RNA
Change in inducible reservoir size (HIV-1 [2]): remained stable
TILDA reservoir, cells with multiply spliced HIV-RNA detectable per million CD4+ T-cells, >1year (HIV-1 [2]; listed as VPA): 2.5 per million CD4+ T-cells and 25.5 per million CD4+ T-cells and 286.2 per million CD4+ T-cells and 2.2 per million CD4+ T-cells and 19.0 per million CD4+ T-cells
TILDA reservoir, cells with multiply spliced HIV-RNA detectable per million CD4+ T-cells, Day 42 (HIV-1 [2]; listed as VPA): 26.0 per million CD4+ T-cells and 12.7 per million CD4+ T-cells and 1.2 per million CD4+ T-cells and 12.9 per million CD4+ T-cells
TILDA reservoir, cells with multiply spliced HIV-RNA detectable per million CD4+ T-cells, Day 0, 0 hour (HIV-1 [2]; listed as VPA): 12.5 per million CD4+ T-cells and 100.7 per million CD4+ T-cells and 326.5 per million CD4+ T-cells and 2.5 per million CD4+ T-cells and 17.1 per million CD4+ T-cells and 3.4 per million CD4+ T-cells
Tmax [3]: approximately 4 hours
